Series [1] has as its system Plasmodium gallinaceum. The series is described as follows: Antimalarial activity against trophozoite-induced Plasmodium gallinaceum infected in chick assessed as mean survival time at 120 mg/kg, sc single dose (reference value: 3.6 days). The format is functional. The note with it: route subcutaneous.
Series [2] deals with Plasmodium gallinaceum. Nature of the series: Antimalarial activity against sporozoite-induced Plasmodium gallinaceum infected in chick assessed as change in cured at 30 mg/kg, sc single dose. In kind it is functional. The note with it: route subcutaneous.
The test system of series [3] is Plasmodium berghei. The series is described as follows: Antimalarial activity against trophozoite-induced Plasmodium berghei infected in mouse assessed as change in mean survival time at 20 mg/kg, sc single dose after 72 hrs of infection. The format is functional. The note with it: route subcutaneous.
Series [4] has as its system Gallus gallus. Nature of the series: Toxicity in trophozoite-induced Plasmodium gallinaceum infected in chick assessed as death at 30 mg/kg, sc single dose measured within 48 hrs. The format is organism-based. Details: dose 30 mg/kg, route subcutaneous. The note with it: chicken, in vivo.
Series [5] deals with Plasmodium gallinaceum. The series is described as follows: Antimalarial activity against trophozoite-induced Plasmodium gallinaceum infected in chick assessed as mean survival time at 30 mg/kg, sc single dose (reference value: 3.6 days). In kind it is functional. The note with it: route subcutaneous.
Series [6] concerns Plasmodium gallinaceum. Nature of the series: Antimalarial activity against sporozoite-induced Plasmodium gallinaceum infected in chick assessed as change in cured at 60 mg/kg, sc single dose. In kind it is functional. The note with it: route subcutaneous.
Series [7] deals with Plasmodium berghei. Nature of the series: Antimalarial activity against trophozoite-induced Plasmodium berghei infected in mouse assessed as change in mean survival time at 40 mg/kg, sc single dose after 72 hrs of infection. The format is functional. The note with it: route subcutaneous.
Series [8] relates to Plasmodium gallinaceum. Nature of the series: Antimalarial activity against trophozoite-induced Plasmodium gallinaceum infected in chick assessed as mean survival time at 60 mg/kg, sc single dose (reference value: 3.6 days). The format is functional. The note with it: route subcutaneous.
The test system of series [9] is Plasmodium berghei. The series is described as follows: Antimalarial activity against trophozoite-induced Plasmodium berghei infected in mouse assessed as change in mean survival time at 10 mg/kg, sc single dose after 72 hrs of infection. In kind it is functional. The note with it: route subcutaneous.
Series [10] has as its system Plasmodium gallinaceum. The series is described as follows: Antimalarial activity against sporozoite-induced Plasmodium gallinaceum infected in chick assessed as change in cured at 15 mg/kg, sc single dose. The format is functional. The note with it: route subcutaneous.
For series [11], the system named is Plasmodium berghei. The series is described as follows: Antimalarial activity against trophozoite-induced Plasmodium berghei infected in mouse assessed as change in mean survival time at 80 mg/kg, sc single dose after 72 hrs of infection. In kind it is functional. The note with it: route subcutaneous.
Series [12] in a line: Toxicity in chloroquine-sensitive, pyrimethamine-resistant Plasmodium falciparum Malayan Camp CH/Q infected in Aotus monkey compound treated for 7 days. The note with it: in vivo.
Another series has as its system Plasmodium vivax. Nature of the series: Antimalarial activity against Plasmodium vivax New Guinea Chesson in po once daily dosed Owl monkey assessed as curative dose compound treated for 7 days. In kind it is functional.
The test system of series [13] is Plasmodium berghei. The series is described as follows: Antimalarial activity against trophozoite-induced Plasmodium berghei infected in mouse assessed as change in mean survival time at 2.5 mg/kg, sc single dose after 72 hrs of infection. The note with it: route subcutaneous. In kind it is functional.
Series [14] has as its system Plasmodium falciparum. Nature of the series: Antimalarial activity against chloroquine-resistant, pyrimethamine-sensitive Plasmodium falciparum Vietnam Oak Knoll in Aotus monkey assessed as dose required to >50% cures compound treated for 7 days. In kind it is functional.
For series [15], the system named is Plasmodium falciparum. Nature of the series: Antimalarial activity against Plasmodium falciparum Vietnam Oak Knoll in po once daily dosed Owl monkey assessed as curative dose compound treated for 7 days. The format is functional.
In series [16] the test system is Plasmodium berghei. The series is described as follows: Antimalarial activity against trophozoite-induced Plasmodium berghei infected in mouse assessed as change in mean survival time at 1.25 mg/kg, sc single dose after 72 hrs of infection. The format is functional. The note with it: route subcutaneous.
For series [17], the system named is Plasmodium berghei. The series is described as follows: Antimalarial activity against trophozoite-induced Plasmodium berghei infected in mouse assessed as change in mean survival time at 5 mg/kg, sc single dose after 72 hrs of infection. The note with it: route subcutaneous. The format is functional.
Series [18] relates to Staphylococcus aureus. Nature of the series: Antibacterial activity against Staphylococcus aureus S18713 assessed as growth inhibition. The format is functional.
Another series deals with Enterococcus faecalis. The series is described as follows: Antibacterial activity against Streptococcus faecalis MGH-2 assessed as growth inhibition. The format is functional.
Series [19] deals with Plasmodium gallinaceum. Nature of the series: Antimalarial activity against sporozoite-induced Plasmodium gallinaceum infected in chick assessed as change in cured at 120 mg/kg, sc single dose. In kind it is functional. The note with it: route subcutaneous.
In another series the test system is Escherichia coli. Nature of the series: Antibacterial activity against Escherichia coli Vogel assessed as growth inhibition. The format is functional.
The subject of another series is Shigella sonnei. Nature of the series: Antibacterial activity against Shigella sonnei C-10 assessed as growth inhibition. The format is functional.
The test system of series [20] is Plasmodium berghei. Nature of the series: Antimalarial activity against trophozoite-induced Plasmodium berghei infected in sc dosed mouse assessed as minimum curative dose. In kind it is functional.
For series [21], the system named is Mycobacterium tuberculosis. Nature of the series: Antibacterial activity against Mycobacterium tuberculosis H37Rv assessed as growth inhibition. In kind it is functional.
In series [22] the test system is Plasmodium gallinaceum. The series is described as follows: Antimalarial activity against sporozoite-induced Plasmodium gallinaceum infected in chick assessed as change in cured at 240 mg/kg, sc single dose. In kind it is functional. The note with it: route subcutaneous.
For series [23], the system named is Staphylococcus aureus. Nature of the series: Antibacterial activity against Staphylococcus aureus UC-76 assessed as growth inhibition. The format is functional.
Another series has as its system Pseudomonas aeruginosa. The series is described as follows: Antibacterial activity against Pseudomonas aeruginosa 28 assessed as growth inhibition. The format is functional.
The subject of series [24] is Gallus gallus. The series is described as follows: Toxicity in trophozoite-induced Plasmodium gallinaceum infected in chick assessed as death at 160 mg/kg, sc single dose measured within 48 hrs. The note with it: chicken, in vivo. Details: dose 160 mg/kg, route subcutaneous. The format is organism-based.
Series [25] relates to Plasmodium gallinaceum. The series is described as follows: Antimalarial activity against trophozoite-induced Plasmodium gallinaceum infected in chick assessed as mean survival time at 160 mg/kg, sc single dose (reference value: 4 days). In kind it is functional. The note with it: route subcutaneous.
The test system of series [26] is Plasmodium gallinaceum. The series is described as follows: Antimalarial activity against trophozoite-induced Plasmodium gallinaceum infected in chick assessed as cured at 160 mg/kg, sc single dose. In kind it is functional, organism-based. Details: dose 160 mg/kg.

≈ marks a conversion by molar mass, not a printed value. Calls of active or inactive are those of the source. The rule behind the calls is not given here.

These results are taken from ChEMBL document CHEMBL3244272, “Folate antagonists. 15. 2,3-Diamino-6-(2-naphthylsulfonyl)quinazoline and related 2,4-diamino-6-[(phenyl and naphthyl)sulfinyl and sulfonyl]quinazolines, a potent new class of antimetabolites with phenomenal antimalarial activity” (J Med Chem, 1979).

In the case of `CC1(C)N=C(N)N=C(N)N1c1ccc(Cl)cc1.Cl` [CHLORCYCLOGUANIL HYDROCHLORIDE], the MST with Plasmodium gallinaceum [1] worked out at 22.7 days; with Plasmodium gallinaceum [2], 2.3 days; in the series with Plasmodium berghei [3], 7.9 days; in the series with Plasmodium gallinaceum [5] it was 15.3 days; in the series on Plasmodium gallinaceum [6] it was 0.4 days; with Plasmodium berghei [7] it was 13.4 days. The MST is 18.7 days in the series with Plasmodium gallinaceum [8], 4.9 days in the series on Plasmodium berghei [9], 0 days with Plasmodium gallinaceum [10] and 21.6 days with Plasmodium berghei [11]. For the same compound, in the series with Gallus gallus [4], the Activity entry is listed as “Toxic”.
The compound `CCc1nc(N)nc(N)c1-c1ccc(Cl)cc1` [PYRIMETHAMINE] displayed an MTD at 168 h in series [12] of more than 2.5 mg/kg. Moreover, the MST with Plasmodium berghei [3] was 7.7 days; in the series with Plasmodium berghei [13], 4.7 days; in the series with Plasmodium berghei [9], 6.1 days; in the series on Plasmodium berghei [16] it was 3.1 days; in the series on Plasmodium berghei [17], 5.3 days. The CD90 in the series with Plasmodium vivax was determined as 0.625 mg/kg; with Plasmodium falciparum [15], 0.15 mg/kg. Also, in the series with Plasmodium falciparum [14], the Activity was 0.6 mg/kg.
For `Nc1nc(N)c2cc(S(=O)(=O)c3cc(Cl)cc(Cl)c3)ccc2n1`, the MIC – broadly, the lowest concentration that inhibits growth of the organism – is 10 µg/mL (≈ 27.1 µM) in the series with Staphylococcus aureus [18]; 1 µg/mL (≈ 2.71 µM) in the series with Enterococcus faecalis; more than 25 µg/mL in the series on Escherichia coli; more than 25 µg/mL in the series with Shigella sonnei; more than 25 µg/mL in [21]; 2.5 µg/mL (≈ 6.77 µM) with Staphylococcus aureus [23]. Moreover, the MIC in the series on Pseudomonas aeruginosa was more than 25 µg/mL. In addition, the MST in the series on Plasmodium gallinaceum [2] came to 6.3 days; with Plasmodium berghei [3], 9.7 days; in the series with Plasmodium gallinaceum [19], 7 days; in the series on Plasmodium gallinaceum [6], 7 days; in the series on Plasmodium berghei [7], 11.3 days; in the series with Plasmodium berghei [13], 0.7 days. In addition, the MST amounted to 7 days in the series on Plasmodium gallinaceum [22]; 6.9 days in the series on Plasmodium berghei [9]; 2.2 days with Plasmodium gallinaceum [10]; 0.3 days with Plasmodium berghei [16]; 5.9 days in the series on Plasmodium berghei [17]. The MCD with Plasmodium berghei [20] was 160 mg/kg.
For `COc1ccc(S(=O)(=O)c2ccc3nc(N)nc(N)c3c2)cc1`, the MIC in the series with Staphylococcus aureus [18] was 2.5 µg/mL (≈ 7.57 µM); in the series on Enterococcus faecalis, less than 0.25 µg/mL; with Escherichia coli, 2.5 µg/mL (≈ 7.57 µM); with Shigella sonnei, 2.5 µg/mL (≈ 7.57 µM); in the series on Staphylococcus aureus [23], 2.5 µg/mL (≈ 7.57 µM); in the series on Pseudomonas aeruginosa it was more than 25 µg/mL. Besides, the MST in the series on Plasmodium berghei [3] is 11.4 days; with Plasmodium berghei [7] it was 15.9 days; in the series with Plasmodium gallinaceum [25] it was 14.8 days; with Plasmodium berghei [9] it was 4.9 days. Besides, the Activity result in the series on Gallus gallus [24] was “Toxic”. Further, in the series with Plasmodium berghei [20], the MCD came to 20 mg/kg. The result in the series on Plasmodium gallinaceum [26] was Active.
